Laboratory results taken from patent publication US20130310379A1, “MODULATORS OF METHYL MODIFYING ENZYMES, COMPOSITIONS AND USES THEREOF” (CONSTELLATION PHARMACEUTICALS, priority 2010, published 2013).

Target: EZH2 (Homo sapiens, UniProt Q15910)
Test: EZH2 assay: rPRC2 with biotinylated oligonucleosome substrates and 3H SAM, FlashPlate scintillation counting, IC50
Format: biochemical
Details: rPRC2, biotinylated oligonucleosome substrates, 3H SAM; read-out: EZH2 IC50
Description: Assays were carried out by mixing rPRC2 together with biotinylated oligonucleosome substrates in the presence of the radio-labeled enzyme co-factor, S-adenosyl-L-methionine (^3H SAM) (Perkin Elmer) and monitoring the enzymatically mediated transfer of tritiated methyl groups from ^3H SAM to histone lysine residues. The amount of resulting tritated methylhistone product was measured by first capturing the biotinylated oligonuclesomes in streptavidin (SAV) coated FlashPlates (Perkin Elmer), followed by a wash step to remove un-reacted ^3H SAM, and then counting on a TopCount NXT 384 well plate scintillation counter (Perkin Elmer). The final assay conditions for EZH2 were as follows: 50 mM Tris Buffer pH 8.5, 1 mM DTT, 69 uM Brij-35 detergent, 5.0 mM MgCl2, 0.1 mg/mL BSA, 0.2 uM ^3H SAM, 0.2 uM biotinylated oligonucleosomes, 3.6 uM H3K27me3 peptide and 2 nM EZH2.
Compound IC50 measurements were obtained as follows: Compounds were first dissolved in 100% DMSO as 10 mM stock solutions. […] A 12.5 uL volume of the HMT enzyme, H3K27me3 peptide and oligonucleosome substrate in assay buffer was added to each well of the assay plate using a Multidrop Combi (ThermoFisher). Compounds were pre-incubated with the enzyme for 20 min, followed by initiation of the methyltransferase reaction by addition of 12.5 uL of 3H SAM in assay buffer (final volume=25 uL). The final concentrations of compounds ranged from a top default concentration of 80 uM down to 0.16 uM in ten 2-fold dilution steps. Reactions were carried out for 60 minutes and quenched with 20 uL per well of 1.96 mM SAH, 50 mM Tris PH 8.5, 200 mM EDTA. Stopped reactions were transferred to SAV coated Flashplates (Perkin Elmer), incubated for 120 min, washed with a plate washer, and then read on the TopCount NXT (1.0 min/well) to measure the amount of methylhistone product formed during the reaction. The amount of methylhistone product was compared with the amount of product formed in the 0% and 100% inhibition control wells allowing the calculation of % Inhibition in the presence of the individual compounds at various concentrations. IC50's were computed using a 4 parameter fit non-linear curve fitting software package (XLFIT, part of the database package, ActivityBase (IDBS)) where the four parameters were IC50, Hill slope, pre-transitional baseline (0% INH), and post-transitional baseline (100% INH); with the latter two parameters being fixed to zero and 100%, respectively, by default.

Sequence of EZH2 (Q15910 whole entry): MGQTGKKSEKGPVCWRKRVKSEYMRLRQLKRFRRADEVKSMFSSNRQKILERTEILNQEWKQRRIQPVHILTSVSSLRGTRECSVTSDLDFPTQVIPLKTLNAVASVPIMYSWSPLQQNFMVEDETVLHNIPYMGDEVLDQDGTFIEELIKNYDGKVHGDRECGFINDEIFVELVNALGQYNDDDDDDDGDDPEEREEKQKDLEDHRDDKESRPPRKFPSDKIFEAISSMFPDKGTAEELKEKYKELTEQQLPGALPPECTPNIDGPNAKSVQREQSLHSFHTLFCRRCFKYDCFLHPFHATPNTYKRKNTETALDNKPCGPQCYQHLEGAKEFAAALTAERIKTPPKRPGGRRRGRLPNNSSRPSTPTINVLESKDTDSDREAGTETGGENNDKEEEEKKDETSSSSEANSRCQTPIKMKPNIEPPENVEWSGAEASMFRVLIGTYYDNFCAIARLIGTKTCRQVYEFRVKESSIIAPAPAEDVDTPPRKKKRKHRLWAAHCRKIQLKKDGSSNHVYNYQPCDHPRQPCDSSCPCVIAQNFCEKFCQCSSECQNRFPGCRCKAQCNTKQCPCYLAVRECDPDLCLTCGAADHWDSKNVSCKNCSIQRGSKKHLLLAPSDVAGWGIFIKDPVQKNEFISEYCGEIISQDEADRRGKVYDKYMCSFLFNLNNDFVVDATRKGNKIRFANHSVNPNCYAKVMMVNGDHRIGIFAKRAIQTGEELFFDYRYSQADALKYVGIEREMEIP
Sequence of EZH2 (O75530 whole entry partner): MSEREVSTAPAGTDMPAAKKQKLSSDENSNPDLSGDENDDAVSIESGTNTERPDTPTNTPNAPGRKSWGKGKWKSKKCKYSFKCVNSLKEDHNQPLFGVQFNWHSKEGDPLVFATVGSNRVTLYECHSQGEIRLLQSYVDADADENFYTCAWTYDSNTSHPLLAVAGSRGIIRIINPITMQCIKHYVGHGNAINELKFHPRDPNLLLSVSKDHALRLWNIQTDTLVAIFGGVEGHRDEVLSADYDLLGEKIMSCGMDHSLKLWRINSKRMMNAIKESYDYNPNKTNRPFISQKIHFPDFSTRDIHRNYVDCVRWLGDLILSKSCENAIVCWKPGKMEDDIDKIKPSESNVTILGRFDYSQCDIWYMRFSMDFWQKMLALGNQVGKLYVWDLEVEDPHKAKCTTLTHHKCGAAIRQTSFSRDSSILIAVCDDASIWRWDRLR
Sequence of EZH2 (Q15022 whole entry partner): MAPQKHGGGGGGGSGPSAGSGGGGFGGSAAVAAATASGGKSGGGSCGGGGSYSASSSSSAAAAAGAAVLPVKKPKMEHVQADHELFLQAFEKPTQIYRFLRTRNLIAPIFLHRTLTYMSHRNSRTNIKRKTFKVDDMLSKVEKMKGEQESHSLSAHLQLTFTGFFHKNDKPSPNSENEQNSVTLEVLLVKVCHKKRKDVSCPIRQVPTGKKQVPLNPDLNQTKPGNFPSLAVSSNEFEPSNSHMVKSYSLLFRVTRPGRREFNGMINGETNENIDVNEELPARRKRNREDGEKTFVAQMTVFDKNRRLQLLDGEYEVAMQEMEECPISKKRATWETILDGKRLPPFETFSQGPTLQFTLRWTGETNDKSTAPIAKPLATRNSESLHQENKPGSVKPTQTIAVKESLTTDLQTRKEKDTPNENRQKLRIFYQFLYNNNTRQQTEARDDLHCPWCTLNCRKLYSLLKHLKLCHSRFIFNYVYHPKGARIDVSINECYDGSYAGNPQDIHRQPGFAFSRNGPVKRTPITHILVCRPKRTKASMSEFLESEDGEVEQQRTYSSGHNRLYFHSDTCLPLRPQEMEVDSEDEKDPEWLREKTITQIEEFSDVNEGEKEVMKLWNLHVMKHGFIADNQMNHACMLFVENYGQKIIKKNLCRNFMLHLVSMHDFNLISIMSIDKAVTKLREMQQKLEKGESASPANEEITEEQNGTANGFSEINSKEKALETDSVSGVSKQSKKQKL

Row | SMILES | IC50 [µM]
1 | CC1(C)CC(NC(=O)c2ccc(Oc3cc(Br)ccc3C#N)c(Cl)c2)CC(C)(C)N1 [Compound I-255] | < 5
2 | CC1(C)CC(NC(=O)c2ccc(OC(C#N)c3ccccc3)c(Cl)c2)CC(C)(C)N1 (stereo not drawn) [Compound I-421] | > 80
3 | CC1(C)CC(NC(=O)c2ccc(Oc3cccc(C4=CCOCC4)c3C#N)c(Cl)c2)CC(C)(C)N1 [Compound I-529] | < 5
4 | CC1(C)CC(NC(=O)c2ccc(Oc3ccccc3Cc3ccccc3)cc2)CC(C)(C)N1 [Compound I-149] | 5 to 20
5 | CC1(C)CC(NC(=O)c2ccc(Oc3ncccc3F)cc2)CC(C)(C)N1 [Compound I-110] | > 80
6 | CNC(=O)CC1(NC(=O)c2ccc(Oc3cccc(-c4ccnnc4)c3C#N)c(Cl)c2)CC(C)(C)NC(C)(C)C1 [Compound I-570] | > 80
7 | CC1(C)CC(NC(=O)c2ccc(Oc3cccc4c(N)nccc34)cc2)CC(C)(C)N1 [Compound I-316] | 20 to 80
8 | COC(=O)c1ccc(COc2ccc(C(=O)NC3CC(C)(C)NC(C)(C)C3)cc2)cc1 [Compound I-117] | > 80
9 | CC1(C)CC(NC(=O)c2ccc(COc3cccc(-c4ccc(NCCN5CCOCC5)nc4)c3)cc2)CC(C)(C)N1 [Compound I-129] | > 80
10 | Cc1cc(C)cc(Oc2ccc(C(=O)NC3CC(C)(C)NC(C)(C)C3)cc2)c1 [Compound I-119] | > 80
11 | CC1(C)CC(NC(=O)c2cnc(Oc3cccc(-c4cn[nH]c4)c3C#N)c(Cl)c2)CC(C)(C)N1 [Compound I-435] | < 5
12 | CC1(C)CC(NC(=O)c2ccc(Oc3cccc(OCc4ccccc4)c3)cc2)CC(C)(C)N1 [Compound I-168] | 20 to 80
13 | CNC(C)c1cccc(Oc2ccc(C(=O)NC3CC(C)(C)NC(C)(C)C3)cc2Cl)c1 (stereo not drawn) [Compound I-443] | 5 to 20
14 | Cc1ccc(-c2cccc(Oc3ccc(C(=O)NC4CC(C)(C)NC(C)(C)C4)cc3Cl)c2C#N)s1 [Compound I-323] | < 5
15 | CC1(C)CC(NC(=O)c2ccc(Sc3ccccc3)cc2)CC(C)(C)N1 [Compound I-50] | 20 to 80
16 | CC1(C)CC(NC(=O)c2ccc(COc3cccc4ccccc34)cc2)CC(C)(C)N1 [Compound I-4] | < 5
17 | CC1(C)CC(NC(=O)c2cccc(Oc3ccccc3)c2)CC(C)(C)N1 [Compound I-94] | > 80
18 | CC1(C)CC(NC(=O)c2ccc(Oc3cccc(C(=O)O)c3)c(Cl)c2)CC(C)(C)N1 [Compound I-354] | > 80
19 | Cc1ccccc1Oc1ccc(C(=O)NC2CC(C)(C)NC(C)(C)C2)cc1 [Compound I-48] | 20 to 80
20 | Cc1ccc(OCc2ccc(C(=O)NC3CC(C)(C)NC(C)(C)C3)cc2)nc1 [Compound I-70] | > 80
21 | CN(C)C(=O)Cc1cccc(Oc2ccc(C(=O)NC3CC(C)(C)NC(C)(C)C3)cc2Cl)c1C#N [Compound I-464] | > 80
22 | CC1(C)CC(NC(=O)c2ccc(Oc3ccccc3OCc3cccnc3)cc2)CC(C)(C)N1 [Compound I-232] | 20 to 80
23 | Cc1ncccc1-c1cccc(Oc2ccc(C(=O)NC3CC(C)(C)NC(C)(C)C3)cc2Cl)c1C#N [Compound I-352] | < 5
24 | Cc1cc(C(=O)NC2CC(C)(C)NC(C)(C)C2)ccc1Oc1cccc(C2CC2)c1C#N [Compound I-263] | < 5
25 | CC1(C)CC(NC(=O)c2ccc(Nc3ccccc3)nc2)CC(C)(C)N1 [Compound I-104, 6-(Phenylamino)-N-(2,2,6,6-tetramethylpiperidin-4-yl)nicotinamide] | > 80
26 | CC1(C)CC(NC(=O)c2ccc(COc3ccccc3)cc2)CC(C)(C)N1 [Compound I-39] | 20 to 80
27 | N#Cc1c(Oc2ccc(C(=O)NC3CCN(CCN)CC3)cc2Cl)cccc1-c1ccnnc1 [Compound I-486] | 5 to 20
28 | CC1(C)CC(NC(=O)c2ccc(Oc3ccccc3C#N)cc2F)CC(C)(C)N1 [Compound I-245] | 5 to 20
29 | COc1cc(Oc2ccccc2C#N)ccc1C(=O)NC1CC(C)(C)NC(C)(C)C1 [Compound I-191] | > 80
30 | CC1(C)CC(NC(=O)c2ccc(OC3CCCC3)cc2)CC(C)(C)N1 [Compound I-299] | > 80
